{"source": "ChEMBL document CHEMBL5725340", "about": "“BMP inhibitors and methods of use thereof” (2017)", "molecular_target": "T1, Activin receptor type-1 (Homo sapiens, UniProt Q04771)", "T1 sequence (Q04771 whole entry)": "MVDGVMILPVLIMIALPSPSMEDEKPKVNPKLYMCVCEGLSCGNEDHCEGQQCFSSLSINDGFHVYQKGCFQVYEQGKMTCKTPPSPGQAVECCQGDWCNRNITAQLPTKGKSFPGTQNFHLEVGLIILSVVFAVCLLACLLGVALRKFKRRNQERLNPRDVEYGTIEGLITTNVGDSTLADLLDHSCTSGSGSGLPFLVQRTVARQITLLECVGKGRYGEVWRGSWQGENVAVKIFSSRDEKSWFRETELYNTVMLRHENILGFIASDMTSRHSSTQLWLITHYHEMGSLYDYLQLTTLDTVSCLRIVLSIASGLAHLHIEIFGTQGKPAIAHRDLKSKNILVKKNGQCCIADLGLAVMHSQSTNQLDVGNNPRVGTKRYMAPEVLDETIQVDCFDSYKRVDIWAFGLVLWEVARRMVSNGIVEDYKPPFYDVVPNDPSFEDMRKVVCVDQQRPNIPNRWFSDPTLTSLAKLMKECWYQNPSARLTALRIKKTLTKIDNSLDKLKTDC", "experiment": "ALK1-6 enzymatic assays: Specifically, compounds were assayed using LANCE® Ultra ULight¿ technology (Perkin Elmer) against human ALK1-6 enzymes (ALK1: Life Technologies, ALK2-6: Carna Biosciences). Briefly, ALK enzyme (10 nM) was prepared in kinase buffer (50 mM HEPES, pH 7.5, 10 mM MgCl2, […], 0.005% Tween-20 and 2 mM DTT) and dispensed at 2.5 μL/well into a 1536 well, white, solid …"}
{"smiles": "Cc1cc(-c2cnn3cc(-c4ccc(C5CCNCC5)cc4)cnc23)c2ccccc2n1", "values": [{"measurement": "IC50", "result": 23, "unit": "nM"}]}
